Measurements as given in patent US20210054323A1, “INNERVATED INTESTINE ON CHIP” (EMULATE, Inc., priority 2018, published 2021).

Assays:
[1] = system: human iPS-derived sensory neurons (Nociceptors); experiment: Substance P release into apical channel effluent of Nociceptors-Chip; format: cell-based
Protocol: Chemical stimulation of Nociceptors with Capsaicin (e.g. 1 μM), perfused for 3 hours, was followed by effluent collected from the apical channel (neuronal). This Capsaicin treatment elicited the release of substance P, a pain neurotransmitter. […] This model was further developed, as described herein, successfully simulating the process of sensitization that leads to pathological pain by the addition of inflammatory mediators to endothelial media perfused through the vascular channel. As one example, 5 μM each of Prostaglandin E2, bradykinin, serotonin and histamine in Vascular Cell Basal Medium (ATCC® PCS-100-030™) with Microvascular Endothelial Cell Growth Kit-VEGF (ATCC® PCS-110-041™) was perfused through the vascular channel. In other words, this model is intended to simulate peripheral sensitization of Nociceptors. Capsaicin (200 nM) and inflammatory mediators (each 5 μM) were perfused for 3 hours, and the effluents were collected from the apical channel (neuronal). See, FIG. 30A for an exemplary schematic diagram. […] At the same time, inflammatory mediators, i.e. Prostaglandin E2, bradykinin, serotonin and histamine (each 5 μM in media), were added to the inlet of the basal channel. The effluent was collected from the outlet of the apical channel after 3 hours (t=3 h).

[2] = system: Human Dermal Microvascular Endothelial Cells (HMVEC-D); experiment: Vascular permeability, 3 kDa Dextran leakage from basal into apical channel of Nociceptors-Chip; format: cell-based; conditions: capsaicin 200 nM apical, simultaneously with inflammatory mediators (each 5 μM) basal, 3 hours
Protocol: In one embodiment, endothelial cells were seeded into the basal channel, e.g. Human Dermal Microvascular Endothelial Cells (HMVEC-D), i.e. Primary Dermal Microvascular Endothelial Cells; Normal, Human, Neonatal (HDMVECn) (e.g. ATCC® PCS-110-010™). However, it is not meant to limit the source of HMVEC, such that Primary Dermal Microvascular Endothelial Cells may be obtained from neonatal biopsies, e.g. foreskins. Prior to seeding, basal channels were coated with a thin rat collagen coating. Rat collagen was diluted in distillated water to obtain a final protein concentration at 150 μg/mL−1. The basal channel was coated by incubating the channel in collagen solution at 4° C. overnight. Unattached rat collagen was washed away with PBS, then culture medium was flowed in to cover the coated membrane to replace the PBS.
This model was further developed, as described herein, successfully simulating the process of sensitization that leads to pathological pain by the addition of inflammatory mediators to endothelial media perfused through the vascular channel. […]
Another readout is obtained by using Dextran (3 kDa) permeability, where Dextran is added to the basal channel then after 24 hours, effluent from the apical channel was collected for measuring the amount of Dextran that diffused through the endothelial barrier into the neuronal channel. […]

[3] = system: human iPS-derived sensory neurons (Nociceptors); experiment: Live calcium imaging (Fluo-4 AM) of Nociceptors on-chip after capsaicin irritation; format: cell-based; conditions: capsaicin 1 μM, sensory neurons in apical channel
Protocol: Irritation (as pain simulation) to sensory neurons on-chip was induced by capsaicin (1 μM in DMEM/F12 with 10% FBS, supplemented with BDNF, GDNF, NGF, NT-3 (25 ng/ml each) and Ascorbic Acid (200 μM)) in order to recapitulate the sensation of burning (heat) felt by humans exposed to capsaicin. Nociceptors responded to capsaicin, as shown by live imaging of calcium using Fluo-4 AM, see FIGS. 28C and 28D. Fluo-4 AM refers to a calcium sensitive fluorescent dye, loaded onto the sensory neurons. Intracellular calcium fluctuations were monitored over time using high-speed imaging. Acquisition protocols, for the example shown herein, consisted of 5-minute time-lapse sequences of Fluo-4 fluorescence. Alterations in fluorescence as a function of time were measured at a single wavelength (Fluo-4). Analysis and processing, as well as playback of the image sequences for visual inspection, was made using ImageJ/FIJI software. To visualize the spatial and temporal changes in, the raw sequences were processed to highlight changes in fluorescence intensity between frames. Regions of interest over the field of view were selected, and the mean pixel intensity at each frame was measured. The data was first plotted as fluorescence intensity versus and subsequently converted to a relative scale (ΔF/F baseline)

[4] = system: iPSC-derived human brain microvascular endothelial cells; experiment: Inflamed Brain-Chip: endothelial morphology (ZO-1) and Dextran leakage after TNF-α in vascular channel; format: cell-based
Protocol: In one embodiment to provide an innervated human brain chip having intact barrier function, induced pluripotent stem cells (iPSC)-derived cortical neurons, including populations of Glutamatergic neurons and GABAergic neurons, human primary astrocytes, and human primary pericytes were seeded into the neuronal channel (upper chamber), and iPSC-derived human brain microvascular endothelial cells in the vascular channel (lower chamber).
The vascular channel was directly stimulated the vascular channel at two concentrations of TNF-α.

astrocytes = experiment: Brain-Chip GFAP expression after TNF-α perfused into neuronal channel; format: cell-based, human; conditions: TNF-α 100 ng/ml perfused into neuronal channel; up to 24 hours after stimulation
Protocol: TNF-α (100 ng/ml) or vehicle was perfused into the neuronal channel.

endothelial cells = experiment: Real-time TEER measurement in BBB-chip; format: cell-based; conditions: BBB-chip under flow, after TNF-a challenge
Description: TEER measures the resistance to pass current across one or more cell layers on a membrane. Specifically, this electrical resistance is a direct measurement of the resistance of the cell monolayer to the transport of ions. The measurement may be affected by the pore size and density of the membrane, but it aims to ascertain cell and/or tissue properties. The TEER value is considered a good measure of the integrity of a cell monolayer.
The barrier function of the same BBB-chip measured by flowing a fluorescent molecule on one side of the chip and measuring how much of the molecules crosses the endothelial cells, FIG. 23B (middle). The resolution of this measurement is limited by the time it takes for a sufficient sample to flow through the chip. A model of an exemplary TEER-Chip design FIG. 23C (right) utilizing electrodes oriented in a manner that allows electrical resistance of the cells on the membrane to be measured in real-time.

Row | Molecule | Substance P released in the apical channel effluent ([1]; capsaicin 200 nM apical, with inflammatory mediators (Prostaglandin E2, bradykinin, serotonin, histamine, each 5 μM) basal, 3 hours) | Substance P released in the apical channel effluent ([1]; capsaicin 1 μM perfused through apical channel for 3 hours) | Vascular permeability (leakage of 3 kDa Dextran into the apical channel) [2] | Nociceptor response by live imaging of calcium, change in fluorescence (ΔF/F) [3] | Percent leakage of Dextran into the apical channel (paracellular permeability) vs control ([4]; TNF-α 100 ng/ml and 1 ug/ml in vascular channel, 16 hours) | Endothelial cell morphology (ZO-1 expression) ([4]; TNF-α in vascular channel for 16 hours, 100 ng/ml and 1 ug/ml) | GFAP expression (optical intensity of GFAP staining) (astrocytes) | Barrier function by real-time TEER (endothelial cells)
1 | COc1cc(CNC(=O)CCCC/C=C/C(C)C)ccc1O [capsaicin, trans-8-methyl-N-vanillyl-6-nonenamide] | significant increase | significant increase | significant increase | responded |  |  |  | 
2 | TNF-α |  |  |  |  | significantly higher | induces changes | significantly increases | abrupt drop
